The target in one assay is human Smo (Homo sapiens (Human), UniProt Q99835). As to the kind of experiment: Smo radioligand competition binding assay. The settings on record: for inhibition at 0.05 µM: read-out: Smo % inh. @ 0.05 μM. Put shortly:
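Membranes from HEK293 cells expressing surface human Smo 181-781 (40 μg protein/well) incubated 2 h at room temperature with test compound and tritiated Smo antagonist (3 nM), pH 7.5 Tris buffer; filtration and scintillation counting. Non-specific binding defined with 30 μM cold antagonist; IC50 from four-parameter sigmoidal fit.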

Another assay concerns Gli-Luc/MEF cells. The assay can be described thus: Gli-Luc/MEF assay. Type of assay: cell-based, mouse. The settings on record: Shh-stimulated luciferase, 48 hours. Put shortly: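 Shh-stimulated luciferase readout (Bright-Glo) after 48 h, 37 °C, 5% CO2, used to derive IC50 of inhibition. Gli-Luc transgenic mouse MEFs received test compounds at final […] in 3-fold dilutions, with recombinant mouse Shh added immediately at final 2 μg/mL.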

These results are taken from patent US9056865B2, “Pyridine-2-derivatives as smoothened receptor modulators” (Pfizer Inc., priority 2010, dated 2015).

Sequence of human Smo (Q99835 181-787): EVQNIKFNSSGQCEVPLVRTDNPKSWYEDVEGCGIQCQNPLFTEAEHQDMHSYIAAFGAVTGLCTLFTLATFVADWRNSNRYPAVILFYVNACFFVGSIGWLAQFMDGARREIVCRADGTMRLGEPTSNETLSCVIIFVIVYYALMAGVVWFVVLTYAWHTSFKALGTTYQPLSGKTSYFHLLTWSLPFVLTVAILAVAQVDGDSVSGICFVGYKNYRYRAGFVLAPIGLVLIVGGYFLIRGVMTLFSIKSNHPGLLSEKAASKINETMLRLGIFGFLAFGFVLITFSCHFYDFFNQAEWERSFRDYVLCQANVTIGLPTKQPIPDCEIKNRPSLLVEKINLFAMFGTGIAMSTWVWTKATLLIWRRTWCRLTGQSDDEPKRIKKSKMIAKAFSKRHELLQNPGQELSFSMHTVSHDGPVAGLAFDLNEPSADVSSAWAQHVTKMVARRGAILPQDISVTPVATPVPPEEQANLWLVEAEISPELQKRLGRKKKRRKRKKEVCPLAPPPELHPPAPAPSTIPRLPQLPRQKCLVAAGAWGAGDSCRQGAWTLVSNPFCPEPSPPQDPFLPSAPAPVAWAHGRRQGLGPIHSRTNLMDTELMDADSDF

As for `Cc1cnc(-c2ccnc(N3CCN(C(=O)CN4C[C@@H](C)O[C@@H](C)C4)CC3)c2)c(C)c1` [Example A-156, 1-[4-(3,5-dimethyl-2,4′-bipyridin-2′-yl)piperazin-1-yl]-2-[(2R,6S)-2,6-dimethylmorpholin-4-yl]ethanone], the concentration for half-maximal inhibition (IC50) (as a rule, the concentration that gives 50% inhibition) on human Smo was 12.1 nM; in the assay on Gli-Luc/MEF cells (Mus musculus, MEF) it was 6.57 nM. Also, the inhibition at 0.05 µM at human Smo (0.05 μM test compound) stood at 102%.
In the case of `Cc1cnc(-c2ccnc(N3CCN(C(=O)CN4CCOCC4)CC3)c2)c(C)c1` [Example A-157, 1-[4-(3,5-dimethyl-2,4′-bipyridin-2′-yl)piperazin-1-yl]-2-(morpholin-4-yl)ethanone], the IC50 was 14.8 nM at human Smo and 3.58 nM in the assay on Gli-Luc/MEF cells (Mus musculus, MEF). Further, the inhibition at 0.05 µM on human Smo (0.05 μM test compound) was determined as 101%.
As for “N-[(3-endo)-8-(5′-chloro-3-methyl-2,4′-bipyridin-2′-yl)-8-azabicyclo[3.2.1]oct-3-yl]methanesulfonamide [Example A-124]”, the 50% inhibitory concentration (IC50) on human Smo came out at 100 nM; in the assay on Gli-Luc/MEF cells, 25.3 nM. The “Smo % inh. @ 0.05 μM” value at human Smo (0.05 μM test compound) is listed as 79.9%.
